Assays:
Format in all cases: in vivo, human
[1] = Clinical Case 1: continued bad cough not susceptive to antibiotics therapy; conditions: person two, oral, 15 mg per day for 5 days
Description: person two, who had been suffering from a continued bad cough for 2 months and not susceptive to antibiotics therapy, was administrated orally with medicament of 1-calcium phosphate-uracil for 5 days, 15 mg per day.

[2] = Clinical Case 8: sleeping and stamina; conditions: 20 persons aging 12˜70 years; 15 mg per day for one day
Source text: The medicament can ameliorate sleeping and supplement stamina.

[3] = Clinical Case 7: frequent premature beat, cardiac distress and constipation; conditions: person, oral
Description: A person, who had suffered from frequent premature beat, cardiac distress for 3 years and constipation for 5 years, was administrated orally with medicament of 1-calcium phosphate-uracil for 20 days, 13 mg per day.
The therapeutic effect: the symptoms of palpitation premature beat and cardiac distress disappeared completely after 20 days from administration and constipation symptom disappeared after 1 day from administration.

[4] = Clinical Case 2: cough, hyperplasia of prostate and constipation; conditions: person one, oral, 15 mg per day for 5 days
Description: person one, who had been suffering from cough for about 50 years and hyperplasia of prostate for 7 years and recently relapsed into continued cough for 15 days and constipation, was administrated orally with medicament of 1-calcium phosphate-uracil for 5 days, 15 mg per day.

[5] = Clinical Case 6: constipation for about 10 years; conditions: 4 persons, 1-2 times a week on conventional drugs; oral, 12 mg˜15 mg one time per day for 1 day
Source text: 4 persons, who had suffered from constipation for about 10 years, defecated 1-2 times a week when administrated with conventional drugs.

[6] = Clinical Case 3: cold with fever of 39° C.; conditions: person, oral, 15 mg per day for 1 day
Source text: Therapeutic effect: fever was allayed after 1 day and symptom of cough disappeared after 2 days.

influenza [7] = assay: Clinical Case 5: treatment of persons infected with influenza; conditions: 2 infected persons, oral, 15 mg one time per day for 3 days
Description: One day after infection, 2 of 6 infected persons were administrated orally with medicament of 1-calcium phosphate-uracil for 3 day, one time per day, 15 mg each time. Therapeutic effect: fever was allayed after 1 day and symptom of cough faded away after 3 days. Instead of being administrated with medicament of 1-calcium phosphate-uracil, the other 4 infected persons were treated according to conventional therapeutic regimen, recovered until after 15 days.

[8] = Clinical Case 9: liver cancer in a most serious stage; conditions: person; oral, 15 mg one time per day for 10 months
Description: A person, who suffered liver cancer in a most serious stage, was administrated orally with medicament of 1-calcium phosphate-uracil for 10 months, one time per day, 15 mg each time.
Therapeutic effect: liver tumor was disappeared upon the examination of CT.

influenza [9] = assay: Clinical Case 5: administration in advance during influenza period; conditions: 2 of 8 persons in a dormitory, oral in advance, 15 mg one time per day for 1 day; other 6 persons all infected
[10] = Clinical Case 4: fever of 40.5° C.; conditions: person, oral, 15 mg one time per day for 1 day
Source text: Therapeutic effect: fever was allayed after 1 day and symptom of cough disappeared after 3 days.

What does the source list for 1-calcium phosphate-uracil?
symptom of cough ([1]; cough for 2 months): cured completely; symptom of incontinence of urine [1]: disappeared; sleeping on the same day [2]: good sleeping; stamina in the next day [2]: full of vigor; constipation symptom disappeared after ([3]; constipation for 5 years, 13 mg per day): 1 days; symptoms of palpitation premature beat and cardiac distress disappeared completely after ([3]; 13 mg per day for 20 days): 20 days; cough symptom ([4]; continued cough for 15 days): alleviated; frequency of nocturia ([4]; hyperplasia of prostate for 7 years): decreased significantly; constipation [4]: disappeared; defecation [5]: defecated smoothly, once a day; fever was allayed after ([6]; fever of 39° C.): 1 days; symptom of cough disappeared after [6]: 2 days; fever was allayed after (influenza [7]; one day after infection): 1 days; symptom of cough faded away after (influenza [7]; conventional regimen recovered after 15 days): 3 days; liver tumor upon the examination of CT [8]: disappeared; infection with influenza (influenza [9]): not infected with influenza; fever was allayed after ([10]; fever of 40.5° C.): 1 days; symptom of cough disappeared after [10]: 3 days
